Assay results as given in publication PMC10866072, “Design, synthesis, molecular modelling and biological evaluation of novel 6-amino-5-cyano-2-thiopyrimidine derivatives as potent anticancer agents against leukemia and apoptotic inducers” (Journal of Enzyme Inhibition and Medicinal Chemistry, 2024).

How the values were obtained:
RPMI-8226 = assay type: cell-based; conditions: Homo sapiens, one dose 10^-5 M, 48 h
SK-MEL-2 = assay type: cell-based; conditions: Homo sapiens, one dose 10^-5 M, 48 h
[1] = tested on: full NCI 60 cell lines panel; conditions: Homo sapiens, 60 cell, 48 h, read-out: Mean % growth
HCT-15 = assay type: cell-based; conditions: Homo sapiens, one dose 10^-5 M, 48 h, read-out: % growth
CCRF-CEM = assay type: cell-based; conditions: Homo sapiens, one dose 10^-5 M, 48 h
IGROV1 = assay type: cell-based; conditions: Homo sapiens, IGROV-1, one dose 10^-5 M, 48 h, read-out: % growth
786-0 = assay type: cell-based; conditions: Homo sapiens, one dose 10^-5 M, 48 h
ACHN = assay type: cell-based; conditions: Homo sapiens, one dose 10^-5 M, 48 h
SF-295 = assay type: cell-based; conditions: Homo sapiens, one dose 10^-5 M, 48 h
K-562 = assay type: cell-based; conditions: Homo sapiens, K562, one dose 10^-5 M, 48 h
SK-MEL-28 = assay type: cell-based; conditions: Homo sapiens, one dose 10^-5 M, 48 h
PC-3 = assay type: cell-based; conditions: Homo sapiens, one dose 10^-5 M, 48 h
M14 = assay type: cell-based; conditions: Homo sapiens, one dose 10^-5 M, 48 h
HOP-62 = assay type: cell-based; conditions: Homo sapiens, one dose 10^-5 M, 48 h
A549/ATCC = assay type: cell-based; conditions: Homo sapiens, one dose 10^-5 M, 48 h
KM12 = assay type: cell-based; conditions: Homo sapiens, one dose 10^-5 M, 48 h
NCI-H226 = assay type: cell-based; conditions: Homo sapiens, one dose 10^-5 M, 48 h
A498 = assay type: cell-based; conditions: Homo sapiens, one dose 10^-5 M, 48 h
MDA-MB-468 = assay type: cell-based; conditions: Homo sapiens, one dose 10^-5 M, 48 h
MDA-MB-435 = assay type: cell-based; conditions: Homo sapiens, one dose 10^-5 M, 48 h, read-out: % growth
SNB-75 = assay type: cell-based; conditions: Homo sapiens, one dose 10^-5 M, 48 h
MCF7 = assay type: cell-based; conditions: Homo sapiens, one dose 10^-5 M, 48 h, read-out: % growth
TK-10 = assay type: cell-based; conditions: Homo sapiens, one dose 10^-5 M, 48 h
EKVX = assay type: cell-based; conditions: Homo sapiens, one dose 10^-5 M, 48 h
CAKI-1 = assay type: cell-based; conditions: Homo sapiens, CAKI-1, 48 h, one dose 10^-5 M, 48 h
NCI-H522 = assay type: cell-based; conditions: Homo sapiens, one dose 10^-5 M, 48 h
NCI-H460 = assay type: cell-based; conditions: Homo sapiens, one dose 10^-5 M, 48 h, read-out: % growth
SNB-19 = assay type: cell-based; conditions: Homo sapiens, one dose 10^-5 M, 48 h, read-out: % growth
MALME-3M = assay type: cell-based; conditions: Homo sapiens, one dose 10^-5 M, 48 h
OVCAR-5 = assay type: cell-based; conditions: Homo sapiens, one dose 10^-5 M, 48 h
HCC-2998 = assay type: cell-based; conditions: Homo sapiens, one dose 10^-5 M, 48 h
UO-31 = assay type: cell-based; conditions: Homo sapiens, UO-31, 48 h, one dose 10^-5 M, 48 h
HOP-92 = assay type: cell-based; conditions: Homo sapiens, one dose 10^-5 M, 48 h
OVCAR-4 = assay type: cell-based; conditions: Homo sapiens, one dose 10^-5 M, 48 h
SF-539 = assay type: cell-based; conditions: Homo sapiens, one dose 10^-5 M, 48 h
HS 578T = assay type: cell-based; conditions: Homo sapiens; one dose 10^-5 M, 48 h; HS 578T; read-out: % growth
SK-MEL-5 = assay type: cell-based; conditions: Homo sapiens, one dose 10^-5 M, 48 h, read-out: % growth
DU-145 = assay type: cell-based; conditions: Homo sapiens, one dose 10^-5 M, 48 h
HCT-116 = assay type: cell-based; conditions: Homo sapiens, one dose 10^-5 M, 48 h, read-out: % growth
UACC-62 = assay type: cell-based; conditions: Homo sapiens, one dose 10^-5 M, 48 h
LOX IMVI = assay type: cell-based; conditions: Homo sapiens, one dose 10^-5 M, 48 h, read-out: % growth
SK-OV-3 = assay type: cell-based; conditions: Homo sapiens, one dose 10^-5 M, 48 h
NCI-H23 = assay type: cell-based; conditions: Homo sapiens, one dose 10^-5 M, 48 h, read-out: % growth
SW-620 = assay type: cell-based; conditions: Homo sapiens, one dose 10^-5 M, 48 h
OVCAR-8 = assay type: cell-based; conditions: Homo sapiens, one dose 10^-5 M, 48 h
U251 = assay type: cell-based; conditions: Homo sapiens, U-251, one dose 10^-5 M, 48 h
T-47D = assay type: cell-based; conditions: Homo sapiens, T47D, one dose 10^-5 M, 48 h, read-out: % growth
HT29 = assay type: cell-based; conditions: Homo sapiens, HT-29, one dose 10^-5 M, 48 h
RXF 393 = assay type: cell-based; conditions: Homo sapiens, RXF 393, 48 h, one dose 10^-5 M, 48 h, read-out: % growth
MOLT-4 = assay type: cell-based; conditions: Homo sapiens, one dose 10^-5 M, 48 h, read-out: % growth
SR = assay type: cell-based; conditions: Homo sapiens, one dose 10^-5 M, 48 h
SN12C = assay type: cell-based, human; conditions: Homo sapiens, one dose 10^-5 M, 48 h
MDA-MB-231/ATCC = assay type: cell-based; conditions: one dose 10^-5 M, 48 h; for % growth at 10 µM: Homo sapiens
UACC-257 = assay type: cell-based; conditions: Homo sapiens, one dose 10^-5 M, 48 h
HL-60(TB) = assay type: cell-based; conditions: Homo sapiens, one dose 10^-5 M, 48 h
OVCAR-3 = assay type: cell-based; conditions: Homo sapiens, one dose 10^-5 M, 48 h
SF-268 = assay type: cell-based; conditions: Homo sapiens, one dose 10^-5 M, 48 h, read-out: % growth

N=C(NN=Cc1ccc(Br)cc1)c1c(N)nc(S)nc1-c1ccc(Cl)cc1 [Compound 4k, 4-amino-N'-[(4-bromophenyl)methylene]-6–(4-chlorophenyl)-2-mercapto pyrimidine-5-carboximidohydrazide] showed a % growth at 10 µM (RPMI-8226) of 56.8%, a % growth at 10 µM (SK-MEL-2) of 96% and an activity at 10 µM [1] of 76.8%. The activity at 10 µM (HCT-15) was 73.4%, the % cell growth at 10 µM (CCRF-CEM) was 43.4% and the activity at 10 µM (IGROV1) was 68.2%. For the same compound, the % growth at 10 µM (786-0) was 89.9%, the % growth at 10 µM (ACHN) was 77.3% and the % cell growth at 10 µM (SF-295) was 91.2%. It also gave a % growth at 10 µM (K-562) of 67.8%, a % cell growth at 10 µM (SK-MEL-28) of 105% and a percent cell growth at 10 µM (PC-3) of 70.5%. It also gave a % growth at 10 µM (M14) of 76.5%, a % growth at 10 µM (HOP-62) of 98% and a % growth at 10 µM (A549/ATCC) of 55.3%. It also gave a % growth at 10 µM (KM12) of 76.2%, a % growth at 10 µM (NCI-H226) of 98% and a % growth at 10 µM (A498) of 88.4%. For the same compound, the percent cell growth at 10 µM (MDA-MB-468) was 84.6%, the activity at 10 µM (MDA-MB-435) was 87.8% and the % growth at 10 µM (SNB-75) was 35.5%. The activity at 10 µM (MCF7) was 57.5%, the % cell growth at 10 µM (TK-10) was 116% and the % cell growth at 10 µM (EKVX) was 66.3%. It also gave a % growth at 10 µM (CAKI-1) of 62.4%, a % growth at 10 µM (NCI-H522) of 73.5% and an activity at 10 µM (NCI-H460) of 73.4%. It also gave an activity at 10 µM (SNB-19) of 80.4%, a % growth at 10 µM (MALME-3M) of 119% and a percent cell growth at 10 µM (OVCAR-5) of 97%. For the same compound, the % growth at 10 µM (HCC-2998) was 111%, the % cell growth at 10 µM (UO-31) was 47.8% and the % growth at 10 µM (HOP-92) was 19%. For the same compound, the % growth at 10 µM (OVCAR-4) was 76.7%, the % growth at 10 µM (SF-539) was 71.2% and the activity at 10 µM (HS 578T) was 42.6%. The activity at 10 µM (SK-MEL-5) was 93.3%, the % growth at 10 µM (DU-145) was 83.9% and the activity at 10 µM (HCT-116) was 69.6%. For the same compound, the % growth at 10 µM (UACC-62) was 82.4%, the activity at 10 µM (LOX IMVI) was 92.3% and the % growth at 10 µM (SK-OV-3) was 78.7%. The activity at 10 µM (NCI-H23) was 71.8%, the % growth at 10 µM (SW-620) was 95.6% and the % growth of cells at 10 µM (OVCAR-8) was 63.7%. The % growth at 10 µM (U251) was 77.1%, the activity at 10 µM (T-47D) was 54.8% and the % growth at 10 µM (HT29) was 102%. It also gave an activity at 10 µM (RXF 393) of 82.5%, an activity at 10 µM (MOLT-4) of 54.6% and a percent cell growth at 10 µM (SR) of 62.4%. For the same compound, the % growth at 10 µM (SN12C) was 87.7%, the % growth at 10 µM (MDA-MB-231/ATCC) was -1.21% and the “% growth” value (MDA-MB-231/ATCC) was -1.21%. For the same compound, the percent cell growth at 10 µM (UACC-257) was 81.4%, the % growth at 10 µM (HL-60(TB)) was 119% and the % growth at 10 µM (OVCAR-3) was 101%. It also gave an activity at 10 µM (SF-268) of 90.2%.

N=C(NN=Cc1ccc(Cl)cc1Cl)c1c(N)nc(S)nc1-c1ccc(Cl)cc1 [Compound 4l, 4-amino-6–(4-chlorophenyl)-N'-[(2,4-dichlorophenyl)methylene]-2-mercapto pyrimidine-5-carboximidohydrazide] gave a % growth at 10 µM (RPMI-8226) of 46.5%, a % growth at 10 µM (SK-MEL-2) of 83.3% and an activity at 10 µM [1] of 68.3%. For the same compound, the activity at 10 µM (HCT-15) was 77.4%, the % cell growth at 10 µM (CCRF-CEM) was 64.6% and the activity at 10 µM (IGROV1) was 44.9%. For the same compound, the % growth at 10 µM (786-0) was 88.6%, the % growth at 10 µM (ACHN) was 53.2% and the % cell growth at 10 µM (SF-295) was 85%. For the same compound, the % growth at 10 µM (K-562) was 77.1%, the % cell growth at 10 µM (SK-MEL-28) was 75.8% and the percent cell growth at 10 µM (PC-3) was 48%. It also gave a % growth at 10 µM (M14) of 76.2%, a % growth at 10 µM (HOP-62) of 53% and a % growth at 10 µM (A549/ATCC) of 90.7%. The % growth at 10 µM (KM12) was 79.8%, the % growth at 10 µM (NCI-H226) was 62.4% and the % growth at 10 µM (A498) was 6.77%. It also gave a percent cell growth at 10 µM (MDA-MB-468) of 88.4%, an activity at 10 µM (MDA-MB-435) of 89% and a % growth at 10 µM (SNB-75) of 26.1%. It also gave an activity at 10 µM (MCF7) of 53.1%, a % cell growth at 10 µM (TK-10) of 98.8% and a % cell growth at 10 µM (EKVX) of 59%. For the same compound, the % growth at 10 µM (CAKI-1) was 37%, the % growth at 10 µM (NCI-H522) was 62.3% and the activity at 10 µM (NCI-H460) was 66.3%. For the same compound, the activity at 10 µM (SNB-19) was 84%, the % growth at 10 µM (MALME-3M) was 43.4% and the percent cell growth at 10 µM (OVCAR-5) was 73.2%. The % growth at 10 µM (HCC-2998) was 95%, the % cell growth at 10 µM (UO-31) was 43.2% and the % growth at 10 µM (HOP-92) was 54.9%. For the same compound, the % growth at 10 µM (OVCAR-4) was 79.2%, the % growth at 10 µM (SF-539) was 70.3% and the activity at 10 µM (HS 578T) was 36.4%. For the same compound, the activity at 10 µM (SK-MEL-5) was 81%, the % growth at 10 µM (DU-145) was 79.3% and the activity at 10 µM (HCT-116) was 84.2%. For the same compound, the % growth at 10 µM (UACC-62) was 43.1%, the activity at 10 µM (LOX IMVI) was 69.4% and the % growth at 10 µM (SK-OV-3) was 82.1%. For the same compound, the activity at 10 µM (NCI-H23) was 78.3%, the % growth at 10 µM (SW-620) was 95.8% and the % growth of cells at 10 µM (OVCAR-8) was 90%. The % growth at 10 µM (U251) was 93.9%, the activity at 10 µM (T-47D) was 28.1% and the % growth at 10 µM (HT29) was 87%. The activity at 10 µM (RXF 393) was 31.2%, the activity at 10 µM (MOLT-4) was 66.4% and the percent cell growth at 10 µM (SR) was 65.6%. The % growth at 10 µM (SN12C) was 65.5%, the % growth at 10 µM (MDA-MB-231/ATCC) was 52.7% and the percent cell growth at 10 µM (UACC-257) was 96.5%. For the same compound, the % growth at 10 µM (HL-60(TB)) was 101%, the % growth at 10 µM (OVCAR-3) was 80.2% and the activity at 10 µM (SF-268) was 73.6%.
